Tests used:
Notch2 (N2^IC) = test: Nuclear Notch2 activity in B-CLL cells by EMSA (band shift assay); assay type: cell-based, human; conditions: B-CLL cells, 0.2 μM gliotoxin, 24 h
Description: FIG. 3: Gliotoxin is a potent Notch2 trans-activation inhibitor in B-CLL cells. (A) EMSA showing the inhibition of DNA-bound Notch2IC complexes in the presence of 0.2 μg Gliotoxin. B-CLL samples (n=10) were cultured in the presence of 1 ng/ml TPA with or without 0.2 μM Gliotoxin for 24 hours. Nuclear extracts were subjected to EMSA using a oligonucleotide probe spanning a well defined CBF1/NotchIC binding site derived from the CD23a promoter. (B). Corresponding FACS analysis (plus 10 additional B-CLL samples) showing the downregulation of the Notch2 target gene CD23 as well as the induction of apoptosis of Gliotoxin treated B-CLL samples. Columnes represent the percentage of CD19^+CD23^+ (grey bars) and apoptotic cells (black bars: including early apoptotic cells single positive for AnnexinV, and late apoptotic cells double positive for AnnexinV and probidium iodide), respectively.
As drug screening model, a cell culture system was established which conserves the phenotype of freshly isolated B-CLL cells (3×10^6 B-CLL cells/ml RPMI medium+10% FCS, supplemented with 1 ng/ml of TPA). Notch2 activity in the cell nucleus is determined by means of EMSA (electrophoretic mobility shift assay) experiments, and the cell viability (Probidium iodide/annexinV) and CD23 expression (Notch2 target gene) is determined by means of FACS (flow cytometry) analyses, respectively. […]

K562 (CML) = test: Apoptosis FACS in leukaemia cell line K562; assay type: cell-based; conditions: K562, 0.2 μM gliotoxin, 24 h
Description: FIG. 7: (A) The apoptotic activity of gliotoxin on further B-CLL patient samples (CLL4-CLL8) is illustrated. The (non-Notch2-associated) leukaemia cell lines (or the leukaemia cell lines not characterised by ligand-independent Notch2 fragments) Jurkat (T-ALL), SH1 (hairy cell carcinoma), RL-7 and K562 (CML) are resistant to a treatment with 0.2 μM (corresponding to 60 ng/ml) of gliotoxin. Cells were incubated for 24 h+/−gliotoxin, and the percentage of apoptotic cells (probidium-iodide+/annexinV+) was determined by means of FACS analysis. In none of the 4 non-Notch2-associated cell lines indicated, the application of 0.2 μM of gliotoxin led to a significant induction of apoptosis within 24 hours. The cytotoxic effect of Gliotoxin correlates with the Notch2 activity in leukemias. (B) Corresponding EMSA showing the activity of Notch2 in B-CLL cells and in leukemic cell lines (Jurkat, SH1, RL7, and K562).

[1] = test system: Huh7 (hepatocellular carcinoma); test: Cell count analysis Huh7; assay type: cell-based, human; conditions: Huh7, 200 nM gliotoxin, 72 h
Description: (§1) FIG. 8 a-d: Effects of gliotoxin on cell counts of various human tumour cell lines in vitro. Cell counts of a) hepatocellular carcinoma cell lines HepG2, Huh7, SNU398, Hep3b, HeLa (cervix) and the cholangiocarcinoma cell line NEC as well as b) the pancreatic cancer cell line Panc-1 and the melanoma cell lines d) MelJuso, Meljuso-Bcl-2 (+) and 607B after 72 h treatment with 200 nM gliotoxin; c-d) Cell count dose range experiments with c) pancreatic carcinoma cell lines Panc-1 and MiaPaCa as well as melanoma cell lines MelJuso, 518A2 and 607B using 25, 50 100 and 200 nM gliotoxin for 24 h. All data are given relative to control ±standard deviation.
(§2) Tumour cells were seeded at a density of 10,000 cells/well in 24-well plates. 24 h after seeding, medium containing gliotoxin was added to yield desired concentrations of gliotoxin. At time points indicated, culture medium was removed by suction. Adherent cells were washed with DPBS (Cambrex, Verviers, Belgium) and incubated with trypsin (Gibco) at 37° C. Detached cells were transferred to test tubes containing Cellpack isotonic fluid (Sysmex Europe, Bornbarch, Germany) and counted with a Coulter Z1 electronic cell counter (Beckman Coulter, Bedford, UK).

[2] = test system: SNU398 (hepatocellular carcinoma); test: Cell count analysis SNU398; assay type: cell-based, human
Description: as §1, §2

[3] = test system: Panc-1 (pancreas carcinoma); test: Cell count analysis Panc-1; assay type: cell-based, human
Description: as §1, §2

607B (melanoma) = test: Cell count analysis 607B; assay type: cell-based, human
Description: as §1, §2

[4] = test system: Panc-1 (pancreatic cancer); test: Apoptosis flow cytometry (Annexin V / 7-AAD) Panc-1; assay type: cell-based, human; conditions: Panc-1, 200 nM gliotoxin, 24 h
Description: FIG. 10 a-b: Effects of gliotoxin on Notch2 regulation and apoptosis. The melanoma cell line 518A2 (A) and the pancreatic cancer cell line Panc-1 (B) were treated with 200 nM gliotoxin or vehicle control for 24 h Notch2 activity was analysed by band shift assay. Apoptosis was measured as annexin V and 7-AAD double positivity by FACS. Data are given as percentage of apoptotic cells ±standard deviation.
Tumour cells were seeded at a density of 50,000 cells/well in 6 well plates. 24 h after seeding, medium containing gliotoxin was added to yield desired concentrations of gliotoxin. After further 24 h cells were harvested, counted and washed twice with PBS. Then, 100,000 cells were resuspended in 100 μl binding buffer and stained with Annexin V-PE and 7-AAD (both Becton Dickinson, N.J., USA) according to manufacturer's recommendations. After 20 minutes incubation time at room temperature in the dark, 400 μl binding buffer was added and immediately analyzed on a FACScalibur flow cytometer using CellQuest software (both Becton Dickinson, N.J., USA)

[5] = test system: B1 B-cells (LPS responder); conditions: mice, single administration of 100 μg of gliotoxin; cited from earlier work
[6] = test system: U937 (macrophage cell line); conditions: cited from earlier work

For CN1C(=O)[C@]23CC4=CC=C[C@H](O)[C@H]4N2C(=O)[C@@]1(CO)SS3 [gliotoxin, [3R-(3α,5aβ,6β,10aα)]-2,3,5a,6-tetrahydro-6-hydroxy-3-(hydroxymethyl)-2-methyl-10H-3,10a-epi-dithiopyrazino[1,2-a]indol-1,4-dion], the “transcriptional Notch2 activity (EMSA)” value (Notch2 (N2^IC)) was “dramatic loss”, the “induction of apoptosis (probidium-iodide+/annexinV+)” value (K562 (CML)) was “resistant” and the “mean reduction of cell numbers compared to vehicle treated controls” value [1] was 31%. For the same molecule, the “mean reduction of cell numbers compared to vehicle treated controls” value ([2]; SNU398, 200 nM gliotoxin, 72 h) was 96%, the response ([2]; SNU-398, 0.2 μM (60 ng/ml)) was about 100% and the response ([3]; Panc-1, 0.2 μM (60 ng/ml)) was about 100%. For the same molecule, the “effect on cell count” value ([3]; Panc-1, 200 nM gliotoxin, 72 h) was “very effective”, the “cytotoxicity in dose range experiment (cell count)” value ([3]; Panc-1, 25, 50, 100 and 200 nM, 24 h) was “clear dose dependent cytotoxicity” and the “effect on cell count” value (607B (melanoma); 607B, 200 nM gliotoxin, 72 h) was “very effective”. For the same molecule, the “cytotoxicity in dose range experiment (cell count)” value (607B (melanoma); 607B, 25, 50, 100 and 200 nM, 24 h) was “clear dose dependent cytotoxicity”, the “apoptotic cells (annexin V and 7-AAD double positive)” value [4] was 47% and the “effect on B1 B-cells (LPS responder)” value [5] was “complete loss of B1 B-cells”. The “IC50 with regard to cell viability” value [6] was 0.014 µg/mL.

Source: patent US7981878B2, “Tumor treatment with gliotoxin derivatives” (priority 2005, dated 2011)
